Results on nine compounds are retold here after ChEMBL document CHEMBL1127515, “The [(methyloxy)imino]methyl moiety as a bioisoster of aryl. A novel class of completely aliphatic beta-adrenergic receptor antagonists” (J Med Chem, 1994).

Usually IC50 stands for the point on the concentration scale where inhibition reaches its midpoint. A lower IC50 goes with greater potency in that assay. By Ki is commonly meant a measure of affinity in units of concentration, obtained from inhibition or displacement. High values mean a looser hold on the target, low ones a stronger hold on the target.

The target in assay [1] is Beta-2 adrenergic receptor (Cavia porcellus, UniProt Q8K4Z4). Kind of assay: Inhibitory concentration against beta-2-adrenergic receptor in isolated guinea pig tracheal strips.
Assay [2] concerns the target Beta-1 adrenergic receptor (Rattus norvegicus, UniProt P18090). Nature of the assay: Binding affinity against beta-1-adrenergic receptor in rat brain. The class given is tissue-based.
The target in assay [3] is Beta-2 adrenergic receptor (Bos taurus, UniProt Q28044). Kind of assay: Binding affinity against beta-2-adrenergic receptor in bovine lung.
In assay [4] the target is Beta-1 adrenergic receptor (Cavia porcellus, UniProt B0FL73). Kind of assay: Inhibitory concentration against beta-1-adrenergic receptor in isolated guinea pig atria.
Beta-1 adrenergic receptor (Cavia porcellus, UniProt B0FL73), sequence (B0FL73 whole entry): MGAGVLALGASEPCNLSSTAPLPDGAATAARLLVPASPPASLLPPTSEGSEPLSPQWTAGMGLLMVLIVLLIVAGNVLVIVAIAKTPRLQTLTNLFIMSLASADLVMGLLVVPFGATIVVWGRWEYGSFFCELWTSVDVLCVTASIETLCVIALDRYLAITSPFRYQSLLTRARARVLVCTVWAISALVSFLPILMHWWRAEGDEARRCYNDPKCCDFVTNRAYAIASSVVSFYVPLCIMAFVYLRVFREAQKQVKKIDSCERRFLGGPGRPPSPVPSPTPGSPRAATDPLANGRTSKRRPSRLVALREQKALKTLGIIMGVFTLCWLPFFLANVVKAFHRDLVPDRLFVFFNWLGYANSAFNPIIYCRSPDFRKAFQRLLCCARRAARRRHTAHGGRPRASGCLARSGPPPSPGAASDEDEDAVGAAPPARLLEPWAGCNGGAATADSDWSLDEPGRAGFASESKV

Beta-1 adrenergic receptor (Rattus norvegicus, UniProt P18090), sequence (P18090 whole entry): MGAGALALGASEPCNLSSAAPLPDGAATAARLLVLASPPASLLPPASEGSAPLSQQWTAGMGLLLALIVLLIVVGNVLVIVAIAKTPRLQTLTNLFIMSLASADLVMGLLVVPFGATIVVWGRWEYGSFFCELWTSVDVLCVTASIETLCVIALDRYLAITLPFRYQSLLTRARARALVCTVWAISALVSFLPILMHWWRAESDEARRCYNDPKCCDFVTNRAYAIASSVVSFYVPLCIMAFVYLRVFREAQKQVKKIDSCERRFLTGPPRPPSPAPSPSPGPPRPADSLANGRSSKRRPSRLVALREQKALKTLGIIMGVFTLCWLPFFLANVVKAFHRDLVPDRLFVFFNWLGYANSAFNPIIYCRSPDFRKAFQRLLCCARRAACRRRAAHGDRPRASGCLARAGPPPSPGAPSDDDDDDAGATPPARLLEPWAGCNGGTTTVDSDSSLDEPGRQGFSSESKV
Beta-2 adrenergic receptor (Cavia porcellus, UniProt Q8K4Z4), sequence (Q8K4Z4 whole entry): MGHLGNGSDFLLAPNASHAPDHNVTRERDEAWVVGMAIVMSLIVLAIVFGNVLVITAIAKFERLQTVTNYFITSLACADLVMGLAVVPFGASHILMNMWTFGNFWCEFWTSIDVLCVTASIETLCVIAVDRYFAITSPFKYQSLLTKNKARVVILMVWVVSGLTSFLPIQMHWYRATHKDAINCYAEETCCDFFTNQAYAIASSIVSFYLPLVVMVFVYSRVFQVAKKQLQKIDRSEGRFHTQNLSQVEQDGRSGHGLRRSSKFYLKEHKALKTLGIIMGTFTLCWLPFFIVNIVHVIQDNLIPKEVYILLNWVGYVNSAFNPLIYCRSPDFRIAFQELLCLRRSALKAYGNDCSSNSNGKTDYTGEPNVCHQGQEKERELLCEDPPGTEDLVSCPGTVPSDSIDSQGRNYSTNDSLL
Beta-2 adrenergic receptor (Bos taurus, UniProt Q28044), sequence (Q28044 whole entry): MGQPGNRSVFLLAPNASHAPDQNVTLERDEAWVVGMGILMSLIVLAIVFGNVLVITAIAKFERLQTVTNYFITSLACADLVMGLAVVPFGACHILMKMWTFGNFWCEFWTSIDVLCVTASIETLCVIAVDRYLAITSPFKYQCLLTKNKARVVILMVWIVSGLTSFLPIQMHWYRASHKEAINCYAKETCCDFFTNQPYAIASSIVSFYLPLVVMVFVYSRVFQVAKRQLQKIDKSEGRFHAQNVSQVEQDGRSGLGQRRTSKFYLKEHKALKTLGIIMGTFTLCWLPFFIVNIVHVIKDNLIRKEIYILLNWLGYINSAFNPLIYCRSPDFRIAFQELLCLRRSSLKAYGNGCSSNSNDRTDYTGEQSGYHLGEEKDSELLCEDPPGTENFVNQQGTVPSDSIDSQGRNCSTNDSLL

In the case of `C/C=N/OCC(O)CNC(C)C` (centres undefined), the IC50 is 12.9 µM in assay [1] and 30.2 µM in assay [4]. The inhibitory constant (Ki) in assay [2] was determined as 1480 nM; in assay [3], 7200 nM.

For the compound `CCCO/N=C/C(O)CNC(C)C` (centres undefined), the half-maximal inhibitory concentration (IC50) in assay [1] was 4.37 µM; in assay [4], 15.5 µM. The Ki in assay [2] was 1240 nM; in assay [3], 5600 nM.

In the case of `CC/C=N/OCC(O)CNC(C)(C)C` (centres undefined), the half-maximal inhibitory concentration (IC50) is 1.55 µM in assay [1] and 26.3 µM in assay [4]. Also, the Ki in assay [2] amounted to 500 nM; in assay [3], 1260 nM.

Regarding `CC/C=N/OCC(O)CNC(C)C` (centres undefined), the IC50 is 12 µM in assay [1] and 15.5 µM in assay [4]. In addition, the values for the Ki in assay [2] and in assay [3] were 2200 nM and 4580 nM, respectively.

Turning to `CCO/N=C/C(O)CNC(C)C` (centres undefined), the results for the IC50 in assay [1] and in assay [4] were 3.31 µM and 12.3 µM, respectively. For the same compound, the figures for the inhibitory constant (Ki) in assay [2] and in assay [3] were 1040 nM and 3500 nM, respectively.

With `CCCO/N=C/C(O)CNC(C)(C)C` (centres undefined), the IC50 in assay [1] is 0.269 µM; in assay [4], 8.32 µM.

As for `C/C=N/OCC(O)CNC(C)(C)C` (centres undefined), the IC50 in assay [1] is 4.07 µM; in assay [4] it was 13.5 µM. Besides, the Ki in assay [2] was 760 nM; in assay [3], 1980 nM.

`CCO/N=C/C(O)CNC(C)(C)C` (centres undefined): the IC50 in assay [1] was 0.977 µM; in assay [4], 13.8 µM. The results for the Ki in assay [2] and in assay [3] were 1080 nM and 1400 nM, respectively.

With `CC(C)NCC(O)c1ccc(Cl)c(Cl)c1` (centres undefined) [DICHLOROISOPROTERENOL], the results for the IC50 in assay [1] and in assay [4] were 0.977 µM and 0.115 µM, respectively. Further, the values for the Ki in assay [2] and in assay [3] were 51 nM and 140 nM, respectively.
